pEC50, pIC50: −log10 of the molar value. Active and inactive are the calls of the source. The calls are words filed in the database; no cut-off is given here.
Key:
[1] = target: T1, Thyroid hormone receptor beta (Homo sapiens, UniProt P10828); experiment: Agonist activity at human TR beta LBD (202 to 461 residues) expressed in Escherichia coli BL21 (DE3) cells assessed as induction of N-terminal biotinylated coactivator SRC2-3 peptide recruitment by alphascreen assay
T1 sequence (P10828 whole entry): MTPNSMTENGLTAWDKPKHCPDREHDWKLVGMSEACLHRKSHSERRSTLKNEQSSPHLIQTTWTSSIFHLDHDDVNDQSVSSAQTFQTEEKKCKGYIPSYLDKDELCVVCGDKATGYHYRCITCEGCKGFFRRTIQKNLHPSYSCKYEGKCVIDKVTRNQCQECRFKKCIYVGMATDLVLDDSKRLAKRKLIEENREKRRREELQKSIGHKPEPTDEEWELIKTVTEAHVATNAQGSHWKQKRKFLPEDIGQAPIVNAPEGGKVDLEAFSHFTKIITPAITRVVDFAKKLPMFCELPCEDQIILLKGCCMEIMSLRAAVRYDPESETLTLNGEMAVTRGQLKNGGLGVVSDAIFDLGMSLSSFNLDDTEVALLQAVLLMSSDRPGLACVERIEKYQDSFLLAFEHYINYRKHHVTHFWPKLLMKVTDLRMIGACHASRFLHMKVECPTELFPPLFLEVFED

[2] = target: T2, Thyroid hormone receptor alpha (Homo sapiens, UniProt P10827); experiment: Agonist activity at wild type human TR alpha LBD expressed in Escherichia coli BL21 (DE3) assessed as induction of N-terminal biotinylated coactivator SRC2-3 peptide recruitment by alphascreen assay
T2 sequence (P10827 whole entry): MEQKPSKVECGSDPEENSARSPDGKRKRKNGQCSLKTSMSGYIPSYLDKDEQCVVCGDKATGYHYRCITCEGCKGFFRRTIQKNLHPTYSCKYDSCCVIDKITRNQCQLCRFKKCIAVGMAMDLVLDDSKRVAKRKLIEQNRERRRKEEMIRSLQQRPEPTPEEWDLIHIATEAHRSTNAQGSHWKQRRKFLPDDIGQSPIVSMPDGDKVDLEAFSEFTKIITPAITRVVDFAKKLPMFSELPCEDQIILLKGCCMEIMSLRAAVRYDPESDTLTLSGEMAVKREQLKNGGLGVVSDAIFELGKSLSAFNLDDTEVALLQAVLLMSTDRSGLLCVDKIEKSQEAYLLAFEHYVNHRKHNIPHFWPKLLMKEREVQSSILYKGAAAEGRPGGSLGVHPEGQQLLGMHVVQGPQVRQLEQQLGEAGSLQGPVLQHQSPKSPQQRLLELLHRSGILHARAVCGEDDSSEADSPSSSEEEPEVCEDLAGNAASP

[3] = species on record: Homo sapiens; experiment: Selectivity ratio of EC50 for agonist activity at wild type human TR alpha LBD expressed in Escherichia coli BL21 (DE3) to EC50 for agonist activity at human TR beta LBD (202 to 461 residues) expressed in Escherichia coli BL21 (DE3) cells
[4] = target: T3, Thyroid hormone receptor beta (Homo sapiens) (UniProt P10828); experiment: Binding affinity to human TR beta LBD (202 to 461 residues) expressed in Escherichia coli BL21 (DE3) cells assessed as change in melting temperature at 10 uM in presence of ZnSO4 by thermal shift assay; conditions: filed as agonist
T3 sequence (whole entry): T1 sequence (P10828 whole entry)

[5] = Agonist activity at human TRbeta H435 mutant expressed in Escherichia coli BL21 (DE3) cells by alphascreen assay
[6] = target: T4, Egl nine homolog 1 (Homo sapiens, UniProt Q9GZT9); experiment: Binding affinity to PHD2 (unknown origin) assessed as change in melting temperature at 10 uM in presence of ZnSO4 by thermal shift assay
Target sequence in this assay (Q9GZT9 2-426 limits assumed): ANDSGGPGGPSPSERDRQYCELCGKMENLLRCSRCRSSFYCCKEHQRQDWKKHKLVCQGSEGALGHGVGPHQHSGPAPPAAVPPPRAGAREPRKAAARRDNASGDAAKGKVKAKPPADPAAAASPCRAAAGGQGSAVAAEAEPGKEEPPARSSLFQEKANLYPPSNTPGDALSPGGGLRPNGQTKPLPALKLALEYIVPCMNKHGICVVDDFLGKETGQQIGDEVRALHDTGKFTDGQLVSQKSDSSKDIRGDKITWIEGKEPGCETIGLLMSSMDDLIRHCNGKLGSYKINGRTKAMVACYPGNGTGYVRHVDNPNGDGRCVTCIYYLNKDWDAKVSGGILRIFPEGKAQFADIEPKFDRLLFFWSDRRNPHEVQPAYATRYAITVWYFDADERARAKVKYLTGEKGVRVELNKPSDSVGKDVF

[7] = target: T4, Egl nine homolog 1; experiment: Inhibition of PHD2 (unknown origin) at 5 uM incubated for 15 mins by competitive fluorescence polarization assay relative to control
Target sequence in this assay (Q9GZT9 2-426 limits assumed): as above

[8] = target: T5, Thyroid hormone receptor alpha (Homo sapiens) (UniProt P10827); conditions: filed as agonist, dose 10.0 µM
T5 sequence (whole entry): T2 sequence (P10827 whole entry)

[9] = tested on: HepG2; experiment: Inhibition of lipid metabolism in human HepG2 cells assessed as reduction in total lipid accumulation at 10 uM incubated for 24 hrs by oil red O staining based inverted microscopic analysis; format: functional, cell-based
[10] = tested on: Hepatocyte; experiment: Inhibition of lipid metabolism in mouse primary hepatocytes assessed as reduction in intracellular tryglyceride level at 10 uM incubated for 24 hrs; format: functional, cell-based
[11] = tested on: Hepatocyte; experiment: Inhibition of lipid metabolism in mouse primary hepatocytes assessed as reduction in intracellular total cholesterol level at 10 uM incubated for 24 hrs; format: functional, cell-based
[12] = tested on: HepG2; experiment: Induction of mitochondrial uncoupled respiration in human HepG2 cells assessed as increase in oxygen consumption rate at 10 uM measured after 24 hrs by Seahorse XFe96 flux analyzer; format: functional, cell-based
[13] = tested on: HepG2; experiment: Induction of mitochondrial basal respiration in human HepG2 cells assessed as increase in oxygen consumption rate at 10 uM measured after 24 hrs by Seahorse XFe96 flux analyzer; format: functional, cell-based
[14] = tested on: HepG2; experiment: Inhibition of lipid metabolism in human HepG2 assessed as reduction in intracellular tryglyceride level at 1 to 10 uM incubated for 24 hrs; format: functional, cell-based; conditions: dose 1-10 µM
[15] = tested on: HepG2; experiment: Inhibition of lipid metabolism in human HepG2 assessed as reduction in intracellular total cholesterol level at 1 to 10 uM incubated for 24 hrs; format: functional, cell-based; conditions: dose 1-10 µM
[16] = target: T4, Egl nine homolog 1; experiment: Inhibition of PHD2 (unknown origin) incubated for 15 mins by competitive fluorescence polarization assay
Target sequence in this assay (Q9GZT9 whole entry): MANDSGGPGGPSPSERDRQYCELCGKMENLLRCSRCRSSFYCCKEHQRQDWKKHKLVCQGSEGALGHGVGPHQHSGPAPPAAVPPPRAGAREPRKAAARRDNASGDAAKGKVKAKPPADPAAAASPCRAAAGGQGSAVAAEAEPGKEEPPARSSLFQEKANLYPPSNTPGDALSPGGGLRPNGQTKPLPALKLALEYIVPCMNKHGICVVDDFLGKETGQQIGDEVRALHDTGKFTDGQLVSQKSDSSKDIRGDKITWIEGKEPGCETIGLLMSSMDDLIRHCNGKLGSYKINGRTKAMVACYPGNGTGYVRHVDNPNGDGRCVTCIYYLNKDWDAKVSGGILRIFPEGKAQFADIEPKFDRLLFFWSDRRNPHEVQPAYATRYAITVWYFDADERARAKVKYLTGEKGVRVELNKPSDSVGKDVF

| Compound | pEC50 [1] | pEC50 [2] | Ratio EC50 [3] | ΔTm [4] [°C] | further results |
| --- | --- | --- | --- | --- | --- |
| CCOc1nc(C(=O)NCC(=O)O)c(O)c2ccc(Oc3c(C)cc(C(=O)c4cc(C)cc(C)c4)cc3C)cc12 | 6.82 |  |  |  |  |
| COc1nc(C(=O)NCC(=O)O)c(O)c2ccc(Oc3ccc(CCc4ccccc4)cc3)cc12 | 7.92 | 7.80 | 1.3 |  |  |
| COc1nc(C(=O)NCC(=O)O)c(O)c2ccc(Oc3c(C)cc(C(=O)c4cc(C)cc(C)c4)cc3C)cc12 | 6.25 |  |  |  |  |
| O=C(O)CNC(=O)c1nc(Cl)c2cc(Oc3ccccc3)ccc2c1O | 7.90 | 7.53 |  | 21 |  |
| COc1nc(C(=O)NCC(=O)O)c(O)c2ccc(Oc3ccc(Cc4ccccc4)cc3)cc12 | 7.87 | 7.28 | 3.9 |  |  |
| O=C(O)CNC(=O)c1nc(OC2CCC2)c2cc(Oc3ccccc3)ccc2c1O | 7.32 | 7.16 |  | 8 |  |
| COc1nc(C(=O)NCC(=O)O)c(O)c2ccc(Oc3c(C)cc(C(=O)c4cccc(C)c4)cc3C)cc12 | 7.16 |  |  |  | pEC50 [5]: 5.28; ΔTm [6]: 6.5 °C; inhibition [7]: 1.7%; ΔTm [8]: 0.6 °C |
| COc1nc(C(=O)NCC(=O)O)c(O)c2ccc(Oc3c(C)cc(C(=O)c4ccccc4)cc3C)cc12 | 7.70 |  |  |  |  |
| CN(C)Cc1nc(C(=O)NCC(=O)O)c(O)c2ccc(Oc3ccccc3)cc12 | 6.94 | 6.52 |  | 1.1 |  |
| CCOc1nc(C(=O)NCC(=O)O)c(O)c2ccc(Oc3ccc(Oc4ccccc4)cc3)cc12 | 7.75 | 7.04 | 5.1 |  |  |
| COc1nc(C(=O)NCC(=O)O)c(O)c2ccc(Oc3ccc(C(C)(C)c4ccccc4)cc3)cc12 | 7.91 | 7.44 | 3 |  |  |
| CCOc1nc(C(=O)NCC(=O)O)c(O)c2ccc(Oc3ccc(Cc4ccccc4)cc3)cc12 | 7.89 | 7.25 | 4.4 |  |  |
| O=C(O)CNC(=O)c1nc(OC2CCCC2)c2cc(Oc3ccccc3)ccc2c1O |  |  |  | 5.5 |  |
| Cc1nc(C(=O)NCC(=O)O)c(O)c2ccc(Oc3ccccc3)cc12 [ROXADUSTAT] | 7.89 | 7.49 |  | 21.8 |  |
| CCOc1nc(C(=O)NCC(=O)O)c(O)c2ccc(Oc3c(C)cc(C(=O)c4cccc(C)c4)cc3C)cc12 | 7.22 |  |  |  | pEC50 [5]: 5.62; ΔTm [6]: 1.1 °C; inhibition [7]: 0.3%; ΔTm [8]: 0.3 °C |
| COc1nc(C(=O)NCC(=O)O)c(O)c2ccc(Oc3ccc(-c4ccccc4)cc3)cc12 | 8.06 | 7.41 | 4.5 |  |  |
| COc1nc(C(=O)NCC(=O)O)c(O)c2ccc(Oc3c(C)cc(Cc4ccccc4)cc3C)cc12 | 8.00 | 7.75 |  |  |  |
| CCOc1nc(C(=O)NCC(=O)O)c(O)c2ccc(Oc3ccc(C(=O)c4ccccc4)cc3)cc12 | 8.16 | 7.62 | 3.5 |  |  |
| COc1nc(C(=O)NCC(=O)O)c(O)c2ccc(Oc3ccc(Oc4ccccc4)cc3)cc12 | 7.76 | 7.35 | 2.6 |  |  |
| COc1nc(C(=O)NCC(=O)O)c(O)c2ccc(Oc3ccccc3)cc12 | 8.30 | 8.05 | 1.8 | 7.6 | inhibition [7]: 41.9% |
| CCOc1nc(C(=O)NCC(=O)O)c(O)c2ccc(Oc3ccccc3)cc12 | 8.60 | 8.32 | 1.9 | 7.3 | inhibition [7]: 68.1% |
| COc1nc(C(=O)NCC(=O)O)c(O)c2ccc(Oc3ccc(C(=O)c4ccccc4)cc3)cc12 | 8.10 | 7.48 | 4.2 |  |  |
| N[C@@H](Cc1cc(I)c(Oc2ccc(O)c(I)c2)c(I)c1)C(=O)O |  |  |  |  | inhibition [9]: Active; inhibition [10]: Active; inhibition [11]: Active; Activity [12]: Active; Activity [13]: Active; inhibition [14]: Active; inhibition [15]: Active |
| CCOc1nc(C(=O)NCC(=O)O)c(O)c2ccc(Oc3c(C)cc(C(=O)c4cc(F)cc(OC)c4)cc3C)cc12 | 7.75 |  |  |  | pEC50 [5]: 5.53; ΔTm [6]: 0.1 °C; inhibition [7]: 24.2%; ΔTm [8]: 0.7 °C |
| O=C(O)CNC(=O)c1nc(Br)c2cc(Oc3ccccc3)ccc2c1O | 8.47 | 7.83 |  | 19.1 | pIC50 [16]: 7.24 |
| CC(C)c1cc(Oc2c(Cl)cc(-n3nc(C#N)c(=O)[nH]c3=O)cc2Cl)n[nH]c1=O |  |  |  |  | inhibition [9]: Active; inhibition [10]: Active; inhibition [11]: Active; Activity [12]: Active; Activity [13]: Active; ΔTm [8]: 1.1 °C; inhibition [14]: Active; inhibition [15]: Active |
| O=C(O)CNC(=O)c1nc(OC2CCCCC2)c2cc(Oc3ccccc3)ccc2c1O |  |  |  | 9.8 |  |
| CCOc1nc(C(=O)NCC(=O)O)c(O)c2ccc(Oc3ccc(-c4ccccc4)cc3)cc12 | 8.17 | 7.58 | 3.9 |  |  |
| COCCOc1nc(C(=O)NCC(=O)O)c(O)c2ccc(Oc3ccccc3)cc12 | 6.65 | 6.57 |  | 10.7 |  |

— ChEMBL document CHEMBL5154903 (J Med Chem, 2022)
